We go through 20 molecules from patent US20230295201A1 (Gilead Sciences, Inc., priority 2020, published 2023).

One test concerns RSV strain A2. Kind of test: RSV HEp-2 EC50 (infectious cytopathic cell protection assay). The class given is cell-based. The conditions noted are these: read-out: RSV HEp-2 EC50. As for the experimental part: Antiviral activity against RSV is determined using an infectious cytopathic cell protection assay in HEp-2 cells. In this assay, compounds inhibiting viral infection and/or replication produce a cytoprotective effect against the virus-induced cell killing that can be quantified using a cell viability reagent. The techniques used here are novel adaptations of methods described in published literature (Chapman et al., Antimicrob Agents Chemother. 2007, 51(9):3346-53.)
HEp-2 cells are obtained from ATCC (Manassas, VI) and maintained in MEM media supplemented with 10% fetal bovine serum and penicillin/streptomycin. Cells are passaged twice a week and kept at subconfluent stage. Commercial stock of RSV strain A2 (Advanced Biotechnologies, Columbia, MD) is titered before compound testing to determine the appropriate dilution of the virus stock that generates desirable cytopathic effect in HEp-2 cells.
For antiviral tests, HEp-2 cells are grown in large cell culture flasks to near confluency but not fully so. The compounds to be tested are prediluted in DMSO in 384-well compound dilution plates, either in an 8 or 40 sample per plate standardized dose response format. 3-fold serial dilution increments of each test compound are prepared in the plates and test samples are transferred via acoustic transfer apparatus (Echo, Labcyte) at 100 nL per well into cell culture assay 384-well plates. Each compound dilution is transferred in single or quadruplicate samples into dry assay plates, which are stored until assay is ready to go. The positive and negative controls are laid out in opposite on ends of the plate in vertical blocks (1 column).
Subsequently, an infectious mixture is prepared using an appropriate dilution of virus stock previously determined by titration with cells at a density of 50,000/ml and 20 µL/well is added to test plates w/compounds via automation (uFlow, Biotek). Each plate includes negative and positive controls (16 replicates each) to create 0% and 100% virus inhibition standards, respectively. Following the infection with RSV, testing plates are incubated for 4 days in a 37° C. cell culture incubator. After the incubation, a cell viability reagent, Cell TiterGlo (Promega, Madison, WI) is added to the assay plates, which are incubated briefly, and a luminescent readout is measured (Envision, Perkin Elmer) in all the assay plates. The RSV-induced cytopathic effect, percentage inhibition, is determined from the levels of remaining cell viability. […] Various potent anti-RSV tool compounds are used as positive controls for antiviral activity.
A general note: Damage to the host cells serves as the signal in cytopathic effect assays.

A further test concerns RSV A2. Kind of test: RSV NHBE EC50 (RSV A2 antiviral assay in normal human bronchial epithelial cells). Type of test: cell-based. Conditions: read-out: RSV NHBE EC50. Here is the method:
Normal human bronchial epithelial (NHBE) cells were purchased from Lonza (Walkersville, MD, Cat #CC-2540) and cultured in Bronchial Epithelial Growth Media (BEGM) (Lonza, Walkersville, MD, Cat #CC-3170). The cells were passaged 1-2 times per week to maintain <80% confluency. The NHBE cells were discarded after 6 passages in culture.
To conduct the RSV A2 antiviral assay, NHBE cells were plated in 96-well plates at a density of 7,500 cells per well in BEGM and allowed to attach overnight at 37° C. Following attachment, 100 μL of cell culture media was removed and 3-fold serially diluted compound was added using a Hewlett-Packard D300 Digital Dispenser. The final concentration of DMSO was normalized to 0.05%. Following compound addition, the NHBE cells were infected by the addition of 100 μL of RSV A2 at a titer of 1×10^4.5 tissue culture infectious doses/mL in BEGM and then incubated at 37° C. for 4 days. […] The mixtures were incubated for 10 minutes at 25° C., and the luminescence signal was quantified on an Envision luminescence plate reader.

Where [1] appears, read: human respiratory syncytial virus, HEp-2, 96 h, HEp-2 cells, RSV A2, 4 days.
Setting [2] is: human respiratory syncytial virus, NHBE, 96 h, NHBE cells, RSV A2, 4 days.
[3] abbreviates: human respiratory syncytial virus, 96 h, HEp-2 cells, RSV A2, 4 days.
Where [4] appears, read: human respiratory syncytial virus, 96 h, NHBE cells, RSV A2, 4 days.
The mark [5] stands for this setting: human respiratory syncytial virus, NHBE, 96 h.

Like-named read-outs stand apart in the source and are kept apart here.

Turning to `CCC(CC)COC(=O)[C@H](CC(C)C)NP(=O)(OC[C@@]1(C#N)O[C@@H](c2ccc3c(N)ncnn23)[C@H](O)[C@@H]1O)Oc1ccccc1` (single isomer, unassigned) [Example 128], the EC50 – broadly, the concentration giving half of the maximal effect – with RSV strain A2 (HEp-2 cells, RSV A2, 4 days) was found to be 1870 nM; in the test on RSV A2 (NHBE cells, RSV A2, 4 days) it was 164 nM.

In the case of `C[C@H](NP(=O)(OC[C@@]1(C#N)O[C@@H](c2ccc3c(N)ncnn23)[C@H](O)[C@@H]1O)Oc1ccccc1)C(=O)O[C@H]1CC[C@@H](C(F)(F)F)CC1` (single isomer, unassigned) [Example 179], the concentration for a half-maximal effect (EC50) in the test on RSV strain A2 (HEp-2 cells, RSV A2, 4 days) was 591 nM; in the test with RSV A2 (NHBE cells, RSV A2, 4 days), greater than 4800 nM.

`CCC(CC)COC(=O)[C@H](CC(C)C)NP(=O)(OC[C@@]1(C#N)O[C@@H](c2ccc3c(N)ncnn23)[C@H](O)[C@@H]1O)Oc1ccccc1` (mixture of isomers) [Example 127, (2S)-2-ethylbutyl 2-(((((2R,3S,4R,5S)-5-(4-aminopyrrolo[2,1-f][1,2,4]triazin-7-yl)-2-cyano-3,4-dihydroxytetrahydrofuran-2-yl)methoxy)(phenoxy)phosphoryl)amino)-4-methylpentanoate]: the concentration giving a half-maximal response (EC50) with RSV strain A2 (setting [1]) worked out at 1730 nM; in the test on RSV A2 (setting [2]), 434 nM.

For the molecule `C[C@H](NP(=O)(OC[C@@]1(C#N)O[C@@H](c2ccc3c(N)ncnn23)[C@H](O)[C@@H]1O)Oc1ccccc1)C(=O)OCC(C)(C)C(F)(F)F` (single isomer, unassigned) [Example 261], in the test with RSV strain A2 (setting [1]), the concentration giving a half-maximal response (EC50) amounted to 34 nM.

For the molecule `CC1CCC(OC(=O)C(C)NP(=O)(OCC2(C#N)OC(c3ccc4c(N)ncnn34)C(O)C2O)Oc2ccccc2)CC1` (centres unmarked) [Example 144], the EC50 in the test on RSV strain A2 (HEp-2 cells, RSV A2, 4 days) turned out to be 614 nM; in the test on RSV A2 (NHBE cells, RSV A2, 4 days), 65 nM.

For `CC[C@H](NP(=O)(OC[C@@]1(C#N)O[C@@H](c2ccc3c(N)ncnn23)[C@H](O)[C@@H]1O)Oc1ccccc1)C(=O)OCC(C)(C)C` (stereo partly drawn) [Example 157, neopentyl (2S)-2-(((((2R,3S,4R,5S)-5-(4-aminopyrrolo[2,1-f][1,2,4]triazin-7-yl)-2-cyano-3,4-dihydroxytetrahydrofuran-2-yl)methoxy)(phenoxy)phosphoryl)amino)butanoate], the results for the half-maximal effective concentration (EC50) in the test with RSV strain A2 (setting [1]) and in the test on RSV A2 (setting [2]) were 972 nM and 163 nM, respectively.

As to `CCC(CC)COC(=O)CNP(=O)(NCC(=O)OCC(CC)CC)OC[C@@]1(C#N)O[C@@H](c2ccc3c(N)ncnn23)[C@H](O)[C@@H]1O` [Example 226, 2-Ethylbutyl ((((2R,3S,4R,5S)-5-(4-aminopyrrolo[2,1-f][1,2,4]triazin-7-yl)-2-cyano-3,4-dihydroxytetrahydrofuran-2-yl)methoxy)((2-(2-ethylbutoxy)-2-oxoethyl)amino)phosphoryl)glycinate], the EC50 with RSV strain A2 (setting [3]) worked out at 1910 nM; with RSV A2 (setting [4]), 2550 nM.

In the case of `C[C@H](NP(=O)(OC[C@@]1(C#N)O[C@@H](c2ccc3c(N)ncnn23)[C@H](O)[C@@H]1O)Oc1ccccc1)C(=O)NC1CCCCC1` (stereo partly drawn) [Example 138, ((2R,3S,4R,5S)-5-(4-aminopyrrolo[2,1-f][1,2,4]triazin-7-yl)-2-cyano-3,4-dihydroxytetrahydrofuran-2-yl)methyl phenyl ((S)-1-(cyclohexylamino)-1-oxopropan-2-yl)phosphoramidate], the concentration for a half-maximal effect (EC50) in the test on RSV strain A2 (setting [1]) is 38500 nM; in the test with RSV A2 (setting [2]) it was greater than 5000 nM.

Consider `COC(=O)[C@H](C)NP(=S)(OC[C@@]1(C#N)O[C@@H](c2ccc3c(N)ncnn23)[C@H](O)[C@@H]1O)Oc1ccccc1` (stereo partly drawn) [Example 71, methyl ((((2R,3S,4R,5S)-5-(4-aminopyrrolo[2,1-f][1,2,4]triazin-7-yl)-2-cyano-3,4-dihydroxytetrahydrofuran-2-yl)methoxy)(phenoxy)phosphorothioyl)-L-alaninate], for which the EC50 with RSV strain A2 (human respiratory syncytial virus, HEp-2, 96 h) was 3140 nM; with RSV A2 (setting [5]), greater than 5000 nM.

Turning to `CCC(CC)COC(=O)[C@@H](C)NP(=O)(OC[C@@]1(C#N)O[C@@H](c2ccc3c(N)ncnn23)[C@H](O)[C@@H]1O)Oc1ccccc1` (single isomer, unassigned) [Example 83], the concentration for a half-maximal effect (EC50) in the test on RSV strain A2 (HEp-2 cells, RSV A2, 4 days) stood at 5300 nM; with RSV A2 (NHBE cells, RSV A2, 4 days) it was 953 nM.

Turning to `CCOC(=O)[C@H](C)NP(=O)(OC[C@@]1(C#N)O[C@@H](c2ccc3c(N)ncnn23)[C@H](O)[C@@H]1O)Oc1ccc(C(C)(C)C)cc1` (single isomer, unassigned) [Example 264], the concentration for a half-maximal effect (EC50) in the test with RSV strain A2 (HEp-2 cells, RSV A2, 4 days) was found to be 41 nM.

Consider `C[C@H](NP(=O)(OC[C@@]1(C#N)O[C@@H](c2ccc3c(N)ncnn23)[C@H](O)[C@@H]1O)Oc1ccccc1)C(=O)O[C@H]1CCOC1` (mixture of isomers) [Example 64, (S)-Tetrahydrofuran-3-yl ((((2R,3S,4R,5S)-5-(4-aminopyrrolo[2,1-f][1,2,4]triazin-7-yl)-2-cyano-3,4-dihydroxytetrahydrofuran-2-yl)methoxy)(phenoxy)phosphoryl)-L-alaninate], for which the half-maximal effective concentration (EC50) was 350 nM with RSV strain A2 (setting [1]) and 3500 nM with RSV A2 (setting [2]).

On to `C[C@H](NP(=O)(O)OC[C@@]1(C#N)O[C@@H](c2ccc3c(N)ncnn23)[C@H](O)[C@@H]1O)C(=O)OC1CCCCC1` [Example 202, cyclohexyl ((((2R,3S,4R,5S)-5-(4-aminopyrrolo[2,1-f][1,2,4]triazin-7-yl)-2-cyano-3,4-dihydroxytetrahydrofuran-2-yl)methoxy)(hydroxy)phosphoryl)-L-alaninate], for which the 50% effective concentration (EC50) is 7050 nM with RSV strain A2 (setting [3]) and greater than 2950 nM in the test on RSV A2 (setting [4]).

In the case of `C[C@H](N[P@@](=O)(OC[C@@]1(C#N)O[C@@H](c2ccc3c(N)ncnn23)[C@H](O)[C@@H]1O)Oc1ccccc1)C(=O)OCC(C)(C)C` [Example 93], the EC50 in the test on RSV strain A2 (HEp-2 cells, RSV A2, 4 days) was found to be 2840 nM; in the test on RSV A2 (NHBE cells, RSV A2, 4 days), 85 nM.

Consider `CCOCCOCCOC(=O)[C@H](C)NP(=O)(OC[C@@]1(C#N)O[C@@H](c2ccc3c(N)ncnn23)[C@H](O)[C@@H]1O)Oc1ccccc1` (single isomer, unassigned) [Example 75], for which the EC50 with RSV strain A2 (setting [1]) stood at 1260 nM.

For `CC(C)(C)C(=O)OCCNP(=O)(OCC1(C#N)OC(c2ccc3c(N)ncnn23)C(O)C1O)Oc1ccccc1` (single isomer, unassigned) [Example 13], the half-maximal effective concentration (EC50) in the test on RSV strain A2 (HEp-2 cells, RSV A2, 4 days) stood at 93 nM; in the test on RSV A2 (NHBE cells, RSV A2, 4 days), 30 nM.

On to `COC(=O)[C@H](C)NP(=O)(OC[C@@]1(C#N)O[C@@H](c2ccc3c(N)ncnn23)[C@H](O)[C@@H]1O)Oc1ccc(C[C@H](N)C(=O)OC)cc1` (single isomer, unassigned) [Example 63], for which the 50% effective concentration (EC50) with RSV strain A2 (HEp-2 cells, RSV A2, 4 days) was 4070 nM; in the test on RSV A2 (NHBE cells, RSV A2, 4 days) it was greater than 5000 nM.

For the molecule `COCCCOC(=O)[C@H](C)NP(=O)(OC[C@@]1(C#N)O[C@@H](c2ccc3c(N)ncnn23)[C@H](O)[C@@H]1O)Oc1ccccc1` (mixture of isomers) [Example 58, 3-Methoxypropyl ((((2R,3S,4R,5S)-5-(4-aminopyrrolo[2,1-f][1,2,4]triazin-7-yl)-2-cyano-3,4-dihydroxytetrahydrofuran-2-yl)methoxy)(phenoxy)phosphoryl)-L-alaninate], the EC50 with RSV A2 (setting [2]) was found to be 917 nM.

For the molecule `CCC(CC)COC(=O)[C@H](C)NP1(=O)OC[C@@]2(C#N)O[C@@H](c3ccc4c(N)ncnn34)[C@H](O)[C@@H]2O1` (stereo partly drawn) [Example 169, 2-ethylbutyl ((4aR,6S,7S,7aS)-6-(4-aminopyrrolo[2,1-f][1,2,4]triazin-7-yl)-4a-cyano-7-hydroxy-2-oxidotetrahydro-4H-furo[3,2-d][1,3,2]dioxaphosphinin-2-yl)-L-alaninate], the concentration giving a half-maximal response (EC50) turned out to be 524 nM in the test with RSV strain A2 (setting [3]) and 965 nM with RSV A2 (setting [4]).

On to `CCOC(=O)c1ccccc1OP1(=O)OC[C@@]2(C#N)O[C@@H](c3ccc4c(N)ncnn34)[C@H](O)[C@@H]2O1` (stereo partly drawn) [Example 224, ethyl 2-(((4aR,6S,7S,7aS)-6-(4-aminopyrrolo[2,1-f][1,2,4]triazin-7-yl)-4a-cyano-7-hydroxy-2-oxidotetrahydro-4H-furo[3,2-d][1,3,2]dioxaphosphinin-2-yl)oxy)benzoate], for which the concentration for a half-maximal effect (EC50) with RSV A2 (setting [5]) came to 2830 nM.
